Results taken from US20090298708A1, “2'-DEOXY-2'-FLUORO-BETA-D-ARABINONUCLEOSIDE 5'-TRIPHOSPHATES AND THEIR USE IN ENZYMATIC NUCLEIC ACID SYNTHESIS” (priority 2006, published 2009).
Like-named read-outs stand apart in the source and are kept apart here. Marks after values point to notes of the source that are not given here.

What was measured:
Design in all cases: key: ++++: excellent (no pausing observed); +++: very good (with slight pausing); ++: Good, full-length products with significant pausing; +: significant pausing, no full-length product but at least one 2′F-araN incorporation detected
[1] = system: Phusion™ High-Fidelity DNA polymerase (Ph); test: Primer extension assay with Phusion High-Fidelity DNA polymerase; assay type: biochemical; conditions: 55° C.; for Incorporation of three 2′F-araTTP / 2′F-araCTP (incorporation efficiency): DNA template PF22 (2′F-araTTP) or PF24 (2′F-araCTP); for Enzymatic activity during primer extension reactions: plus dATP, dGTP
Experimental: (§1) Various different types of DNA polymerases were assessed, including the mesophilic enzyme Klenow fragment of DNA pol I (3′→5′ exo-) (“Kf”); the thermophilic DNA polymerases DV, 9N, Taq, Bst pol I, Th and Ph; and the viral reverse transcriptases HIV RT and MMLV. Kf is a genetically engineered proteolytic product of E. coli pol A gene that encodes DNA polymerase I which retains polymerase activity but has a mutation which abolishes the 3′->5′ and 5′->3′ exonuclease activities. DV is a genetically engineered DNA polymerase purified from a strain of E. coli that carries the DV DNA polymerase gene from Pyrococcus species GB-D. The gene has been engineered to eliminate 3′->5′ proofreading exonuclease activity. 9N is a genetically engineered DNA polymerase that has decreased 3′->5′ proofreading exonuclease activity. 9N is purified from a strain of E. coli that carries a modified 9° N DNA polymerase gene from Thermococcus species (strain 9° N-7). […] Taq polymerase is isolated from E. coli engineered to express Taq polymerase from Thermus aquaticus YT-1. Bst DNA polymerase (Large fragment) is a genetically engineered polymerase that consists of the portion of the Bacillus stearothemmophilus DNA polymerase protein responsible for 5′->3′ polymerase activity but lacks the 5′->3′ exonuclease domain. Th DNA polymerase is a genetically engineered, archaeon-derived DNA polymerase that is a variant of the 9N polymerase described above. The recombinant protein is isolated from E. coli engineered to express 9° NA485L (exo-) DNA polymerase gene, a genetic variant of the native DNA polymerase from Thermococcus species 9° N-7. Ph is a recombinant DNA polymerase that consists of a novel Pyrococcus-like enzyme fused with a double-strand DNA-binding and processivity-enhancing domain.
(§2) Primer extension assays were used to assess the incorporation of 2′F-araNTP on the various DNA templates (Table 1). The DNA primer (PF20) was first radioactively labeled at the 5′-hydroxyl terminus with a radioactive phosphorus probe and the enzyme T4 polynucleotide kinase (T4 PNK) (see Example 1 for General Methods). To assess the incorporation of 2′F-araNTPs, the primer and template were annealed, and the nucleoside 5′-triphosphates added in the presence of enzyme under the conditions specified in Table 2. Time points were obtained by analyzing small aliquots from the reaction mixture through polyacryamide gel electrophoresis (PAGE) and autoradiography.
(§3) Unless otherwise noticed in the Examples described below, the conditions used in the primer extension assays, such as dNTP concentration, reaction temperatures, concentration of Mg^2+, and reaction buffers (provided by the manufacturers, except for the HIV buffer which was prepared in-house) are shown in Table 2. […]

[2] = target: T1, Klenow fragment DNA polymerase (3′→ 5′ exo-) (Kf) (Escherichia coli, UniProt P00582, D355A/E357A); assay type: biochemical, E. coli; conditions: 37° C.; for Incorporation of three 2′F-araTTP / 2′F-araCTP (incorporation efficiency): DNA template PF22 (2′F-araTTP) or PF24 (2′F-araCTP); for Enzymatic activity during primer extension reactions: plus dATP, dGTP
T1 construct: the mesophilic enzyme Klenow fragment of DNA pol I (3′→5′ exo-) (“Kf”); purchased New England Biolabs
T1 sequence (P00582 324-928 D355A/E357A): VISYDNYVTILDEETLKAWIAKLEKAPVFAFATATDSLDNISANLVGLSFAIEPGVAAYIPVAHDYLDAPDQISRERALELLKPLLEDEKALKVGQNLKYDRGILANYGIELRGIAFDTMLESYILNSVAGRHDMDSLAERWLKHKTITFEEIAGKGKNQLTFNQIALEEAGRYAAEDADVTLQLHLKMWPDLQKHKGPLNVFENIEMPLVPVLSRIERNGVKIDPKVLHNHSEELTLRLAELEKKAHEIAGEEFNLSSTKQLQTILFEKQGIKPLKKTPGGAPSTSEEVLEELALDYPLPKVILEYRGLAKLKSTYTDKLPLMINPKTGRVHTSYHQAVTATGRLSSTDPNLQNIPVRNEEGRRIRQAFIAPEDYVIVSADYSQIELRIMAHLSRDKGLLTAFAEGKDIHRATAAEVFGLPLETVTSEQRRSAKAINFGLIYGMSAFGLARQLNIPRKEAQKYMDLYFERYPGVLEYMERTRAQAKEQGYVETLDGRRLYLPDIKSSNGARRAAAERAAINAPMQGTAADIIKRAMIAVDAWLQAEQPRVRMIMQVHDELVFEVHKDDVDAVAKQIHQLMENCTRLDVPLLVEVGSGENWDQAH
Experimental: as §1, §2, §3

[3] = target: T2, Bst DNA polymerase large fragment (Bst) (Geobacillus stearothermophilus, UniProt P52026); test: Primer extension assay with Bst DNA polymerase large fragment; assay type: biochemical; conditions: for Incorporation of three 2′F-araTTP / 2′F-araCTP (incorporation efficiency): DNA template PF22 (2′F-araTTP) or PF24 (2′F-araCTP); for Enzymatic activity during primer extension reactions: plus dATP, dGTP
T2 construct: consists of the portion of the Bacillus stearothemmophilus DNA polymerase protein responsible for 5′->3′ polymerase activity but lacks the 5′->3′ exonuclease domain; purchased New England Biolabs
T2 sequence (P52026 289-876 limits assumed): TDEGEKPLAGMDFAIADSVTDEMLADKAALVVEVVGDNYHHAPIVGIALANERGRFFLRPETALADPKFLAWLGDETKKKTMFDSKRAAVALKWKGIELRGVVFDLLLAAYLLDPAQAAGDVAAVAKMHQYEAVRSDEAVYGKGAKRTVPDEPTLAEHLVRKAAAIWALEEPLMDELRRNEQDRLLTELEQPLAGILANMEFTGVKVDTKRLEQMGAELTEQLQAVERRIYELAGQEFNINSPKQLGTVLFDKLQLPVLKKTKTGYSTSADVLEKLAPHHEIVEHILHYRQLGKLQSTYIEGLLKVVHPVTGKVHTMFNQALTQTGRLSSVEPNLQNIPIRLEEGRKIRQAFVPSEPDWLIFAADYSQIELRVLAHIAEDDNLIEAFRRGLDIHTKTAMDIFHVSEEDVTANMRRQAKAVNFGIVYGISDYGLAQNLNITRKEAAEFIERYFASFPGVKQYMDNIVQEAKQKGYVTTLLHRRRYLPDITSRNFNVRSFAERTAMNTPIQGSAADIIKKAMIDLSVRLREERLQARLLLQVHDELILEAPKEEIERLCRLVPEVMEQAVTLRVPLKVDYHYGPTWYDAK
Experimental: as §1, §2
(§4) Unless otherwise noticed in the Examples described below, the conditions used in the primer extension assays, such as dNTP concentration, reaction temperatures, concentration of Mg^2+, and reaction buffers (provided by the manufacturers, except for the HIV buffer which was prepared in-house) are shown in Table 2.
Primer extension assays were used to assess the incorporation of 2′F-araTTP on the DNA template (PF22). The DNA primer (PF20) was first radioactively labeled at the 5′-hydroxyl terminus with a radioactive phosphorus probe and the enzyme T4 polynucleotide kinase (T4 PNK) according to the manufacturer's specifications (MBI Fermentas Life Sciences, Burlington, ON). Incorporation of the ^32P label was accomplished in reaction mixtures consisting of DNA substrate (200 pmol), 2 μl loxreaction buffer (Buffer A for forward reaction: 500 mM Tris-HCl, pH 7.6 at 25° C., 100 mM MgCl2, 50 mM DTT, 1 mM spermidine and 1 mM EDTA), 1 μl T4 PNK enzyme solution (10 U/1 μl in a solution of 20 mM Tris-HCl, pH 7.5, 25 mM KCl, 0.1 mM EDTA, 2 mM DTT and 50% glycerol), 6 μl [γ-^32P]-ATP solution (6000 Ci/mmol, 10 mCi/ml; Amersham Biosciences, Inc.) and autoclaved sterile water to a final volume of 20 μl. The reaction mixture was incubated for about 45-60 min at 37° C., followed by a second incubation for 10 min at 95° C. to heat denature and deactivate the kinase enzyme.

Taq DNA polymerase (Taq) = target: T3, Taq DNA polymerase (Taq) (Thermus aquaticus, UniProt P19821); test: Primer extension assay with Taq DNA polymerase; assay type: biochemical, Thermus aquaticus YT-1; conditions: for Incorporation of three 2′F-araTTP / 2′F-araCTP (incorporation efficiency): DNA template PF22 (2′F-araTTP) or PF24 (2′F-araCTP); for Enzymatic activity during primer extension reactions: plus dATP, dGTP
T3 construct: purchased New England Biolabs; host or cells: E. coli
T3 sequence (P19821 whole entry): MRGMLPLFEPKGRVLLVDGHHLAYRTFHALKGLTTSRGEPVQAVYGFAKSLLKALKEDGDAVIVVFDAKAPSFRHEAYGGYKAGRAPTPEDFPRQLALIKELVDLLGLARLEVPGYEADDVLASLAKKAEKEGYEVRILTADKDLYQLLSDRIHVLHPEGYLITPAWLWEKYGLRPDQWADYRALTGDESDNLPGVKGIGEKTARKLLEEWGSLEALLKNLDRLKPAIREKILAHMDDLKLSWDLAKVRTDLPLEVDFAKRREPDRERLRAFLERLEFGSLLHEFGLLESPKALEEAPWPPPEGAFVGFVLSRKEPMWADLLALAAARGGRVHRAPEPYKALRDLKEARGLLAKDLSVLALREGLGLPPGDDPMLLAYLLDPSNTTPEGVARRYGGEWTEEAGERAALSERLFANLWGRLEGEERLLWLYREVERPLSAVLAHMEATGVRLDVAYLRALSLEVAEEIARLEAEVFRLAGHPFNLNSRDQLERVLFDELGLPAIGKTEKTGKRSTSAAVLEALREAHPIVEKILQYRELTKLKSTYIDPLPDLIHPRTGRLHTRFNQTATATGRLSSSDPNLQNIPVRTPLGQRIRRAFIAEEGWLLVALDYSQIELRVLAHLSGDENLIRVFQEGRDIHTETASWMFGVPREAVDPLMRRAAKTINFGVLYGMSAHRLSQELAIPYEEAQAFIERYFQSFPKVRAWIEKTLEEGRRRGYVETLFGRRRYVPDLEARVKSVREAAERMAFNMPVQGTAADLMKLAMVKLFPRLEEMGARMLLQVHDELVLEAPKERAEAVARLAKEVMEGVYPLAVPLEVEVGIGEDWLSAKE
Experimental: as §1, §2, §4
Primer extension assays were used to assess the incorporation of 2′F-araTTP on the DNA template (PF22). The DNA primer (PF20) was first radioactively labeled at the 5′-hydroxyl terminus with a radioactive phosphorus probe and the enzyme T4 polynucleotide kinase (T4 PNK) according to the manufacturer's specifications (MBI Fermentas Life Sciences, Burlington, ON). […]

[4] = Example 2, DNA template PF22, 3x 2′F-araTTP, dCTP
[5] = Example 3, DNA template PF24, 3x 2′F-araCTP, dTTP
[6] = Example 3, DNA template PF24, 3x 2′F-araCTP, dTTP, 55° C.

| Structure (SMILES) | Incorporation of three 2′F-araTTP / 2′F-araCTP (incorporation efficiency) [1] | Enzymatic activity during primer extension reactions [1, 4] | Incorporation of three 2′F-araTTP / 2′F-araCTP (incorporation efficiency) [2] | Enzymatic activity during primer extension reactions [2, 4] | Incorporation of three 2′F-araTTP / 2′F-araCTP (incorporation efficiency) ([3]; 37° C.) | Incorporation of three 2′F-araTTP / 2′F-araCTP (incorporation efficiency) ([3]; 55° C.) | Enzymatic activity during primer extension reactions ([3]; Example 2, DNA template PF22, 3x 2′F-araTTP, dCTP, 55° C.) | Incorporation of three 2′F-araTTP / 2′F-araCTP (incorporation efficiency) (Taq DNA polymerase (Taq); 37° C.) | Enzymatic activity during primer extension reactions (Taq DNA polymerase (Taq); Example 2, DNA template PF22, 3x 2′F-araTTP, dCTP, at 37° C.) | Enzymatic activity during primer extension reactions [1, 5] | Enzymatic activity during primer extension reactions [2, 5] | Enzymatic activity during primer extension reactions [3, 6] | Incorporation of three 2′F-araTTP / 2′F-araCTP (incorporation efficiency) (Taq DNA polymerase (Taq); 55° C.) | Enzymatic activity during primer extension reactions (Taq DNA polymerase (Taq); [6]) |
| --- | --- | --- | --- | --- | --- | --- | --- | --- | --- | --- | --- | --- | --- | --- |
| Cc1cn([C@@H]2O[C@H](COP(=O)(O)OP(=O)(O)OP(=O)(O)O)[C@@H](O)[C@@H]2F)c(=O)[nH]c1=O [2′F-araTTP, 1-(2-deoxy-2-fluoro-β-D-arabino-furanosyl)thymine 5′-triphosphate] | ++++ | ++++ | ++ | ++ | ++ | +++ | +++ | ++ | ++^b |  |  |  |  |  |
| Nc1ccn([C@@H]2O[C@H](COP(=O)(O)OP(=O)(O)OP(=O)(O)O)[C@@H](O)[C@@H]2F)c(=O)n1 [2′F-araCTP, 1-(2-deoxy-2-fluoro-β-D-arabinofuranosyl)cytosine 5′-triphosphate] | ++++ |  | ++ |  | None | ++++ |  | ++ |  | ++++ | ++ | ++++ | ++++ | ++++ |
